The text below walks through data of patent publication US9643967B2, “Pyrrolo[3,2-c]pyridine derivatives as TLR inhibitors” (TAKEDA PHARMACEUTICAL COMPANY LIMITED, priority 2013, dated 2017).

Where two headings read alike, the source gives them in different places.

For this assay, the target named is T1, mTLR9 (Mus musculus, UniProt Q9EQU3).
T1 construct: Splenocytes isolated from male C57/BL6 mice; from tissue; host or cells: splenocytes from the spleen of male C57BL/6 mice
T1 sequence (Q9EQU3 26-1032): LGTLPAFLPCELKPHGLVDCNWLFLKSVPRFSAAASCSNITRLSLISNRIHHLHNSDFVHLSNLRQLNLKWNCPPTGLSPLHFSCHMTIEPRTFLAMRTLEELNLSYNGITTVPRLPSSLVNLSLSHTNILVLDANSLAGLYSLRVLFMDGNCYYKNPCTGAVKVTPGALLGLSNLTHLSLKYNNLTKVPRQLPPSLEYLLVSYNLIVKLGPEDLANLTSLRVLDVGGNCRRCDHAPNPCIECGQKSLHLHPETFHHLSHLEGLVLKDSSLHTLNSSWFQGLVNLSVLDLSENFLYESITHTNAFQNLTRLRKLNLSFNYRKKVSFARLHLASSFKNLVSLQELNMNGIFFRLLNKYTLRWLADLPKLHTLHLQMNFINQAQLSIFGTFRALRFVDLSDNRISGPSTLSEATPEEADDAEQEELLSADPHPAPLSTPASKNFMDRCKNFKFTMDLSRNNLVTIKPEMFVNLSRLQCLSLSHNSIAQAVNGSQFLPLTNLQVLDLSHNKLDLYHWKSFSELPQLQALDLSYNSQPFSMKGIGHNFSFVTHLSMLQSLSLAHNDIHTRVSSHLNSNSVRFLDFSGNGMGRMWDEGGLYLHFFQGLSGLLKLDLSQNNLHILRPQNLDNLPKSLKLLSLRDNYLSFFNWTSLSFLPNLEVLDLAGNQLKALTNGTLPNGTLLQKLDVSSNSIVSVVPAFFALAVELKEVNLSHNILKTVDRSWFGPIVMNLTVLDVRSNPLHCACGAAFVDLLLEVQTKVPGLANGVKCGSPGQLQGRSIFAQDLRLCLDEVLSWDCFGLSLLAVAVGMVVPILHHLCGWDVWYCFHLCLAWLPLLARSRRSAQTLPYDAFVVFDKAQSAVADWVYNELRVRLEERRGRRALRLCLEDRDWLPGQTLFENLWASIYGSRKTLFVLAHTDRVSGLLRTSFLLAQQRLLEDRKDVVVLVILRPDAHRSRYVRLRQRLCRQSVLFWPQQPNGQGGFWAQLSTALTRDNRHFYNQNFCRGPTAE
The assay is described as follows: mTLR9 antagonism (IL-6 and TNF-α release assay) in mouse splenocytes, CpG ODN-2006 stimulated. The assay is classed as cell-based. The text has this: mTLR9 and mTLR7 Antagonism (Cytokine Release Assay) in Mouse Splenocytes
TLR7 ligand R0006 (IDT, 5′-rU*rU*rG*rU*rU*rG*rU*rU*rG*rU*rU*rG*rU*rU*rG*rU*rU*rG*rU*rU-3′ (SEQ ID NO:1)), Liposomal transfection reagent—DOTAP (Roche, Cat. No. 11202375001), TLR9 ligand CpG ODN2006 (Sequence: T*C*G*T*C*G*T*T*T*T*G*T*C*G*T*T*T*T*G*T*C*G*T*T; *=phosphorothioate (SEQ ID NO:2)) DMSO (Sigma, D2650), RPMI Powder (Sigma, R6504), Fetal Bovine Serum (Gibco, 10270), Dulbecco's Phosphate Buffered Saline (Sigma, D1408), 96 well plate (Flat bottom, Costar 3599), ELISA kit for IL-6 (EBioscience, 88-7064-77 and TNFa (EBioscience, 88-7346-88), MACS Buffer (AutoMACS Rinsing Solution (Miltenyl Biotec, 130-091-222)+0.05% BSA), RBC lysis buffer (0.85% NH4Cl), 40 μm cell strainer (BD Falcon, 352340) Method: A. Isolation of Mouse Splenocytes
Mouse spleen was isolated from C57BL6 mouse and stored in 1× chilled PBS buffer until further processed. Spleen was transferred to a sterile petriplate and chopped in to 5-6 pieces in presence of MACS buffer (100 μl) with the help of fresh surgical blade and crushed with flat plunger of a sterile syringe. A uniform suspension was prepared by passing cells through a 40 μm cell strainer. Cells were centrifuged at 450×g for 5 minutes at 4° C., supernatant was discarded and pellet dislodged gently, resuspended in 2 ml of pre-warmed (37° C.) RBC lysis buffer at room temperature with continuous gentle mixing with 1 ml pipette. Lysis buffer was neutralized with 12 ml of chilled MACS buffer and cells were passed through 40 μm cell strainer. Cell suspension was collected in 15 ml MACS buffer and centrifuged at 450×g for 5 minutes at 4° C. Pellet was resuspended in 15 ml MACS buffer and centrifuged at 400×g for 5 minutes. Cells were resuspended in 10 ml of RPMI complete medium and viability was estimated by Trypan blue method.
mTLR9 Antagonism (IL-6 and TNF-α Release Assay):
500 μM stock of CpG ODN-2006 was prepared in sterile, endotoxin-free water. Dilutions of 10× concentrations of NCEs were prepared in incomplete RPMI media, maintaining a final DMSO concentration of 0.3%. NCEs were added in a concentration range of 30 μM to 1 nM in respective wells of assay plate, assay medium containing 0.3% DMSO were added to control wells. 0.2 million splenocytes were added to all the wells and incubated at 37° C. in 5% CO2 incubator for 30 minutes. 1 μg/ml of respective agonist was added to all the wells except those were assigned as negative controls and mixed thoroughly. Incomplete RPMI was added to negative control wells and incubated overnight at 37° C./5% CO2. The plate was centrifuged at 450×g for 5 minutes at room temperature and the supernatant was collected. ELISA was performed as per manufacturer's protocol. S/B Ratio, % Activity and % Inhibition was calculated using MS Excel. IC50 and inhibition curve was generated using Graph Pad Prism.

The mark [1] stands for this setting: 1 μM, IL-6 release, mouse splenocytes, read-out: mTLR9 inhibitory activity (% at 1 μM), IL-6.
Where [2] appears, read: 1 μM, TNF-α release, mouse splenocytes, read-out: mTLR9 inhibitory activity (% at 1 μM), TNF-α.

With `CC(C)N1CCN(c2ccc(-c3nccc4[nH]c(CN5CC(O)C5)cc34)cc2)CC1` [Example A72, 1-[[4-[4-(4-isopropylpiperazin-1-yl)phenyl]-1H-pyrrolo[3,2-c]pyridin-2-yl]methyl]azetidin-3-ol], the inhibition at 1 µM is 72% under setting [1] and 0% under setting [2].

On to `CC(C)N1CCN(c2ccc(-c3nccc4[nH]c(CN5CCC[C@@H]5C(=O)O)cc34)cc2)CC1` [Example A74, (2R)-1-[[4-[4-(4-isopropylpiperazin-1-yl)phenyl]-1H-pyrrolo[3,2-c]pyridin-2-yl]methyl]pyrrolidine-2-carboxylic acid], for which the inhibition at 1 µM under setting [2] is 95%. On to `c1cc2[nH]c(CN3CCOCC3)cc2c(-c2ccc(N3CCN(C4COC4)CC3)cc2)n1` [Example A81, 4-[[4-[4-[4-(oxetan-3-yl)piperazin-1-yl]phenyl]-1H-pyrrolo[3,2-c]pyridin-2-yl]methyl]morpholine], for which the inhibition at 1 µM runs as follows: under setting [1], 37%; under setting [2], 20%.

Consider `CC(C)N1CCN(c2ccc(-c3nccc4[nH]c(C(=O)N5CCOCC5)cc34)cc2)CC1` [Example A82, [4-[4-(4-isopropylpiperazin-1-yl)phenyl]-1H-pyrrolo[3,2-c]pyridin-2-yl]-morpholino-methanone], for which the inhibition at 1 µM was 100% (read-out: mTLR9 inhibitory activity (% at 1 μM), IL-6) and 52% (read-out: mTLR9 inhibitory activity (% at 1 μM), TNF-α). For `CC(C)N1CCN(c2ccc(-c3nccc4[nH]c(CCN5CCOCC5)cc34)cc2)CC1` [Example B1, 4-[2-[4-[4-(4-isopropylpiperazin-1-yl)phenyl]-1H-pyrrolo[3,2-c]pyridin-2-yl]ethyl]morpholine], the inhibition at 1 µM under setting [1] amounted to 100% and the inhibition at 1 µM under setting [2] amounted to 100%. `CN1CCN(c2ccc(-c3nccc4[nH]c(CCN5CCOCC5)cc34)cc2)CC1` [Example B2, 4-[2-[4-[4-(4-methylpiperazin-1-yl)phenyl]-1H-pyrrolo[3,2-c]pyridin-2-yl]ethyl]morpholine]: the inhibition at 1 µM turned out to be 100% under setting [1] and 95% under setting [2]. Take `Cc1cc2[nH]c(CCN3CCOCC3)cc2c(-c2ccc(N3CCN(C(C)C)CC3)cc2)n1` [Example B3, 4-[2-[4-[4-(4-isopropylpiperazin-1-yl)phenyl]-6-methyl-1H-pyrrolo[3,2-c]pyridin-2-yl]ethyl]morpholine]: the inhibition at 1 µM is, setting by setting: under setting [1], 100%; under setting [2], 100%. On to `Cc1cc2[nH]c(CCN3CCOCC3)cc2c(-c2ccc(N3CCN(C)CC3)cc2)n1` [Example B4, 4-[2-[6-methyl-4-[4-(4-methylpiperazin-1-yl)phenyl]-1H-pyrrolo[3,2-c]pyridin-2-yl]ethyl]morpholine], for which, under setting [2], the inhibition at 1 µM amounted to 100%. On the same count and under the same terms, then `Cc1cc2[nH]c(CCN3CCCCC3)cc2c(-c2ccc(N3CCN(C(C)C)CC3)cc2)n1` [Example B5, 4-[4-(4-isopropylpiperazin-1-yl)phenyl]-6-methyl-2-[2-(1-piperidyl)ethyl]-1H-pyrrolo[3,2-c]pyridine], with 100%. For the compound `Cc1nc(-c2ccc(N3CCN(C(C)C)CC3)cc2)c2cc(CCN3CCOCC3)[nH]c2c1C` [Example B6, 4-[2-[4-[4-(4-isopropylpiperazin-1-yl)phenyl]-6,7-dimethyl-1H-pyrrolo[3,2-c]pyridin-2-yl]ethyl]morpholine], the inhibition at 1 µM came to 100% under setting [1] and 100% under setting [2]. For the compound `Cc1nc(-c2ccc(N3CCN(C)CC3)cc2)c2cc(CCN3CCOCC3)[nH]c2c1C` [Example B7, 4-[2-[6,7-dimethyl-4-[4-(4-methylpiperazin-1-yl)phenyl]-1H-pyrrolo[3,2-c]pyridin-2-yl]ethyl]morpholine], the inhibition at 1 µM under setting [2] came to 100%.

For `CCN1CCN(c2ccc(-c3nc(C)c(C)c4[nH]c(CCN5CCOCC5)cc34)cc2)CC1` [Example B8, 4-[2-[4-[4-(4-ethylpiperazin-1-yl)phenyl]-6,7-dimethyl-1H-pyrrolo[3,2-c]pyridin-2-yl]ethyl]morpholine], the inhibition at 1 µM under setting [2] was 93%. With `Cc1nc(-c2ccc(N3CCN(C(C)C)CC3)cc2)c2cc(CCN3CCCC3)[nH]c2c1C` [Example B10, 4-[4-(4-isopropylpiperazin-1-yl)phenyl]-6,7-dimethyl-2-(2-pyrrolidin-1-ylethyl)-1H-pyrrolo[3,2-c]pyridine], the inhibition at 1 µM turned out to be 100% under setting [1] and 100% under setting [2]. On to `Cc1cc2c(cc(CCN3CCOCC3)n2C)c(-c2ccc(N3CCN(C(C)C)CC3)cc2)n1` [Example B11, 4-[2-[4-[4-(4-isopropylpiperazin-1-yl)phenyl]-1,6-dimethyl-pyrrolo[3,2-c]pyridin-2-yl]ethyl]morpholine], for which the inhibition at 1 µM was 100% under setting [1] and 100% under setting [2]. In the case of `Cc1cc2c(cc(CCN3CCOCC3)n2C)c(-c2ccc(N3CCN(C(C)C)CC3)cc2F)n1` [Example B19, 4-[2-[4-[2-fluoro-4-(4-isopropylpiperazin-1-yl)phenyl]-1,6-dimethyl-pyrrolo[3,2-c]pyridin-2-yl]ethyl]morpholine], the inhibition at 1 µM turned out to be 100% under setting [1] and 100% under setting [2]. Regarding `Cc1cc2c(cc(CCN3CCOCC3)n2C)c(-c2cccc(N3CCN(C(C)C)CC3)c2)n1` [Example B21, 4-[2-[4-[3-(4-isopropylpiperazin-1-yl)phenyl]-1,6-dimethyl-pyrrolo[3,2-c]pyridin-2-yl]ethyl]morpholine], the inhibition at 1 µM runs as follows: under setting [1], 100%; under setting [2], 100%. For `COc1cc(-c2nc(C)cc3c2cc(CCN2CCOCC2)n3C)ccc1N1CCN(C(C)C)CC1` [Example B22, 4-[2-[4-[4-(4-isopropylpiperazin-1-yl)-3-methoxy-phenyl]-1,6-dimethyl-pyrrolo[3,2-c]pyridin-2-yl]ethyl]morpholine], the inhibition at 1 µM under setting [1] came to 100% and the inhibition at 1 µM under setting [2] turned out to be 92%. `Cc1cc2c(cc(CCN3CCOCC3)n2C)c(C2CCC(N3CCN(C(C)C)CC3)CC2)n1` (stereo not shown) [Example B27, 4-[2-[4-[4-(4-isopropylpiperazin-1-yl)cyclohexyl]-1,6-dimethyl-pyrrolo[3,2-c]pyridin-2-yl]ethyl]morpholine]: the inhibition at 1 µM under setting [1] came to 100% and the inhibition at 1 µM under setting [2] was found to be 72%.
